The values below come from publication PMC10054477, “Design, Synthesis, and Biological Evaluation of Sulfonamide Methoxypyridine Derivatives as Novel PI3K/mTOR Dual Inhibitors” (Pharmaceuticals, 2023).

Molecules are shown by their SMILES.

One experiment has as its target T1, mTOR (Homo sapiens, UniProt P42345).
T1 construct: purchased Millipore 14-770
Put plainly: LANCE Ultra assay, mTOR inhibition. The format is biochemical. The note with it: mean (n = 2). Here is the method: The inhibitory activity of 22c on mTOR was determined by LANCE Ultra assay. In short, to a solution of kinase buffer, compound solution, ULight-4E-BP1 (Thr37/46) peptide substrate (PE, Catalog No. TRF0128-M), ATP, and mTOR protein (Millipore, Burlington, MA, USA, Catalog No. 14-770) were added. It was transferred to a 384-well plate and incubated at room temperature for 30 min. The LANCE detection buffer was added, which contained EDTA and Eu-antiphos-4E-BP1 (Thr37/46) antibody (PE, catalog number TRF0216-M). The plate was balanced at ambient temperature for 1 h, and the signal was detected via PerkinElmer Envision plate reader.

Another experiment deals with MCF-7 cells. In words: CCK-8 cell viability assay, MCF-7. The note with it: Homo sapiens, MCF7, 72 h, mean (n = 3). It counts as cell-based. Here is the method:
(§1) MCF-7 and HCT-116 cells were purchased from the Meilunbio Biotechnology Co., Ltd. (Dalian, China). Cells were cultured at 37 °C with 5% CO2, using DMEM or RPMI 1640 medium (Meilunbio, Dalian, China) with 10% (v/v) fetal bovine serum (Gibco, San Diego, CA, USA) and 1% (v/v) penicillin and streptomycin (Meilunbio, Dalian, China). CCK-8 assay was used to determine the inhibitory effect in vitro. In short, cells were incubated into 96-well plates at the rate of 5000 cells per well. After 24 h of incubation, 100 μL medium was added, which contained a specific concentration of the test compound. After 72 h, 10 μL CCK-8 regent was added and the plate was incubated at 37 °C, 5% CO2 for 1 h. The optical density of each hole at 450 nm was read by a BioTek TS-800 microplate reader. GraphPad Prism 9.3.1 software was used to calculate the IC50 value.

Experiment [1] relates to HCT-116 cells. Put plainly: CCK-8 cell viability assay, HCT-116. As to conditions: Homo sapiens, mean (n = 3). The format is cell-based. Here is the method:
as §1

The next experiment concerns PI3K. More on the design: method as in PMID 21388141. As to conditions: read-out: enzyme inhibition; cited from earlier work.
A further experiment concerns the target T2, PI3Kα (Homo sapiens, UniProt P42336).
T2 construct: purchased SignalChem P27-122DH
Put plainly: ADP-Glo kinase assay, PI3Kα enzyme inhibition. It counts as biochemical. As to conditions: for inhibition at 0.001 µM: at 1 nM; for IC50: mean (n = 2). As to the method:
The enzymatic inhibitory assays of all target compounds against PI3Kα were performed with the ADP-Glo assay (Promega, Madison, WI, USA, catalog No. V9102/3). Briefly, compounds were continuously diluted to a certain concentration. […] The mixture was added to a 96-well plate and incubated in a dark place at ambient temperature for 40 min. Then, the kinase reaction was stopped by adding of ADP-Glo reagent and the plate was incubated again at ambient temperature for another 40 min. The kinase detection reagent was added and the signal was collected via PerkinElmer Envision plate reader (PE, Boston, MA, USA).

The target of another experiment is PI3Kγ. More on the design: method as in PMID 30582807. As to conditions: cited from earlier work.
Experiment [2] relates to HCT-116 cells. In words: Flow cytometry analysis of apoptosis via Annexin V-FITC/PI staining. It counts as cell-based. The note with it: 24 h. As to the method:
(§2) Hoechst 33342/PI staining was used to detect cell survival and apoptosis, and flow cytometry (FACS Verse, BD, Piscataway, NJ, USA) was used to measure cell cycle and survival. Briefly, HCT-116 cells were seeded in 6-well plates and cultured with 22c at different concentrations for 24 h. As for the Hoechst 33342/PI staining assay, staining buffer with Hoechst 33342/PI was added into each plate and incubated at 4 °C for 30 min. After washing with PBS, the stained cells were observed by fluorescence microscope (IX73, Olympus, Tokyo, Japan). As for detection of cell apoptosis by flow cytometry, cells were stained with Annexin V-FITC/PI. As for cell cycle assay, the cells were fixed with 70% ethanol at 4 °C overnight, and stained with PI/RNase solution for 30 min at 37 °C. All assays were measured by flow cytometry and analyzed by Flowjo 7.6.

The subject of experiment [3] is HCT-116 cells. In words: Flow cytometry analysis of cell cycle via PI staining. It counts as cell-based. As to conditions: 24 h, dose-dependent. As to the method:
as §2

For experiment [4], the system named is phosphorylation of AKT in HCT-116 cells. In words: Western blot of AKT phosphorylation. As to conditions: 24 h. The format is cell-based. Here is the method:
HCT-116 cells were cultured in 100 mm culture dish to 70~80%, and treated with compound 22c at a specified concentration for 24 h. Then, the cells were scraped off with cell scraper, collected into a precooled 1.5 mL centrifuge tube, and lysed with RIPA buffer (Cwbio, Taizhou, China) containing PMSF (1 mM), NaF (1 mM), Na3VO4 (1 mM). The cells were lysed at 4 °C for 30 min, and the concentration of protein was determined by the BCA assay kit (Meilunbio, Dalian, China). Then the protein samples (40 μg) were used to conduct SDS-PAGE electrophoresis (Electrophoresis equipment: BIO-RAD, Hercules, CA, USA; Prefabricated-gel: ACE, Shanghai, China). After electrophoresis, the protein was transferred to PVDF membranes ([…], Millipore, USA). It was sealed with 5% non-fat milk for 1.5 h, washed with TBST for 4 times, and incubated with primary antibody at 4 °C overnight. Then, membranes were recovered to room temperature, washed with TBST for 4 times and incubated with secondary antibody (Huabio, Hangzhou, China) at room temperature for 1.5 h. After incubating, the membranes were washed with TBST for 4 times, visualized with an Amersham Imager 680 (GE, Windsor, CT, USA) through the enhanced ECL detection kit (Meilunbio, Dalian, China). […]

In experiment [5] the test system is HCT-116 cells. In words: Hoechst 33342/PI staining of survival and apoptosis. The format is cell-based. As to conditions: 24 h. As to the method:
as §2

T2 sequence (P42336 whole entry): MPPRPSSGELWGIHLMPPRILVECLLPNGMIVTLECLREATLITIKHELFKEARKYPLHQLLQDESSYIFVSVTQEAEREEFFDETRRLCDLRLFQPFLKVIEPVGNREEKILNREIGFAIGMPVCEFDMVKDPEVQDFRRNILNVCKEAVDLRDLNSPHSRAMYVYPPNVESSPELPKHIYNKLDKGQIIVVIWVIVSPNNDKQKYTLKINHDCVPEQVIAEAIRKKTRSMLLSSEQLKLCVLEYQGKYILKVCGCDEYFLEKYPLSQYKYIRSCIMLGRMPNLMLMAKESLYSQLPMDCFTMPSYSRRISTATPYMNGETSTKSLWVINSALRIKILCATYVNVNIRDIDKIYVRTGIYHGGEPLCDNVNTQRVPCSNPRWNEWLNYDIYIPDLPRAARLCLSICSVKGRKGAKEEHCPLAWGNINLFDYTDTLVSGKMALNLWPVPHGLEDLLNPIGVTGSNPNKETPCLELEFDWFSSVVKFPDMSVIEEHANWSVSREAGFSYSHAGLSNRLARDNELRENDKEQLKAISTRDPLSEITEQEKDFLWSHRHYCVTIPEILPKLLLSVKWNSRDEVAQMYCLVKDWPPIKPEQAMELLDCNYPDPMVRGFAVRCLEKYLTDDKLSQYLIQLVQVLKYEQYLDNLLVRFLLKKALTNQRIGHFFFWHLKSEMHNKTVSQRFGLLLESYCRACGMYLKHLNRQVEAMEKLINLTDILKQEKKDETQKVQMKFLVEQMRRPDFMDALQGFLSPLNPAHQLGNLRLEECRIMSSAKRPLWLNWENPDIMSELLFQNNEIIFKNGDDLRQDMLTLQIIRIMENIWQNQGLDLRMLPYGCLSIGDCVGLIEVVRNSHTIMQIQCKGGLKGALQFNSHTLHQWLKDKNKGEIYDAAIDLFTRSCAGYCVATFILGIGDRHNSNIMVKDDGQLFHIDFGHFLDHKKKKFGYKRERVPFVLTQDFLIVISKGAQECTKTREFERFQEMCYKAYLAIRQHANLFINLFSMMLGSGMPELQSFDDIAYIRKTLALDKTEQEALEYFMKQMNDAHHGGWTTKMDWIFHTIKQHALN
T2 sequence (P27986 whole entry partner): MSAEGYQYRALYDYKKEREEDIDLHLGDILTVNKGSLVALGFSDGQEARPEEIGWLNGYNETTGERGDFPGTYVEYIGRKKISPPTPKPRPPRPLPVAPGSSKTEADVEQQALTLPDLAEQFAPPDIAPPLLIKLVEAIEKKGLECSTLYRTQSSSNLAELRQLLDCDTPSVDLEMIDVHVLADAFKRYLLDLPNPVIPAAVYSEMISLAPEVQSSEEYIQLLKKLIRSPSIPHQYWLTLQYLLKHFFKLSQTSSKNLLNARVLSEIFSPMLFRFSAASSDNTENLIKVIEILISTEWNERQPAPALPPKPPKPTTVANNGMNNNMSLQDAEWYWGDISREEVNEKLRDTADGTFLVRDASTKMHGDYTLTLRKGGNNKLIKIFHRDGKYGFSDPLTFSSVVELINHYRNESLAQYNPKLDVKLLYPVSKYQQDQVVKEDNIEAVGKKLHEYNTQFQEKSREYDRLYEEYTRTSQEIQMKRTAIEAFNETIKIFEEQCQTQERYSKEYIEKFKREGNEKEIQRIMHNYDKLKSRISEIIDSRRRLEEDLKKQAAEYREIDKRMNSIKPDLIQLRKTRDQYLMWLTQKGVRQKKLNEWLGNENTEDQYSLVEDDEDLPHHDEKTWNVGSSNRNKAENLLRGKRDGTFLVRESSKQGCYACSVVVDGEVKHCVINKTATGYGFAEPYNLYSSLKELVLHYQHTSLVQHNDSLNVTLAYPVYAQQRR
T1 sequence (P42345 1362-2549 limits assumed): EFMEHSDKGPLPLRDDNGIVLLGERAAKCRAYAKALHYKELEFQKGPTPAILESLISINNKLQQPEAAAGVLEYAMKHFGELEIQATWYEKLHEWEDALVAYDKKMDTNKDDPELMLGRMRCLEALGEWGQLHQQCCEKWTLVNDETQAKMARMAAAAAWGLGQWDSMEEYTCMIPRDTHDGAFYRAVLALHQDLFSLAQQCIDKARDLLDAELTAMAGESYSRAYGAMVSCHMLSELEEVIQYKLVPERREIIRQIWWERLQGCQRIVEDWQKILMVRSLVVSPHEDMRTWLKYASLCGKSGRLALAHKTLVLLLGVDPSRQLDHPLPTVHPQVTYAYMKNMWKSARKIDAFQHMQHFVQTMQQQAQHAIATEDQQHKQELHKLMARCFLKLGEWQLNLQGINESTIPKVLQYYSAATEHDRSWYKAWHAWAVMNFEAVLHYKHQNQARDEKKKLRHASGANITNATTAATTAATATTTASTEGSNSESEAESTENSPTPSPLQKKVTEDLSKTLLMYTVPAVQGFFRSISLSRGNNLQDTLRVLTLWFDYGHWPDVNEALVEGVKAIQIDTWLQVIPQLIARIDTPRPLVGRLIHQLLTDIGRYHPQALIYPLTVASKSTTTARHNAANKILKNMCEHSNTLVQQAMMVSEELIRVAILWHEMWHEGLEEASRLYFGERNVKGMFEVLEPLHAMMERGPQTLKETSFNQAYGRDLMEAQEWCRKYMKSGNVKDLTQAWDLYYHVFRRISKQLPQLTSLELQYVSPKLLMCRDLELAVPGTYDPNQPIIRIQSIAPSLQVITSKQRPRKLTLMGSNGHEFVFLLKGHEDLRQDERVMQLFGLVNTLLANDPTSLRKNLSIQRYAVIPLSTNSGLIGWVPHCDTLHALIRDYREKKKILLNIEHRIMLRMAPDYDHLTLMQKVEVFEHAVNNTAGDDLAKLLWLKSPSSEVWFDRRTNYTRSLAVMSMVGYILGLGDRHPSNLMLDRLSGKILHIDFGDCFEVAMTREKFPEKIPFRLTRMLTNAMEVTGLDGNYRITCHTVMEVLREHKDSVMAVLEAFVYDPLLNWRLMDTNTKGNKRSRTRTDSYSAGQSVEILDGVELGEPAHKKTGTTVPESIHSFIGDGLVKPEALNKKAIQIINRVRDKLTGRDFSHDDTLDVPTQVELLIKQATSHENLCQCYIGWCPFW

For the molecule `CCOC(=O)c1cnc2ccc(-c3cncc(NS(=O)(=O)c4ccccc4)c3)cn12` [HS-173, reference compound], the IC50 is 110 nM against mTOR; 1.76 ± 0.44 µM in the experiment on MCF-7 cells (Table 1); 0.19 ± 0.05 µM with HCT-116 cells [1] (Table 1, 72 h); […] in the experiment with PI3K.

As to `COc1ncc(-c2ccc3nccc(-c4ccnnc4)c3c2)cc1NS(=O)(=O)c1ccc(F)cc1F` [Omipalisib, reference compound], the inhibition at 0.001 µM at PI3Kα (Table 1) stood at 89%. The IC50 was more than 4 µM in the experiment with MCF-7 cells (Table 1) and 0.02 ± 0.01 µM with HCT-116 cells [1] (Table 1, 72 h). In addition, the inhibition constant Ki on PI3Kγ was […].

`COc1ncc(-c2ccc3c(c2)sc2c(NCCN(C)C)ncnc23)cc1NS(=O)(=O)c1ccc(F)cc1F` [11h, N-(5-(4-((2-(dimethylamino)ethyl)amino)benzo[4,5]thieno[3,2-d]pyrimidin-7-yl)-2-methoxypyridin-3-yl)-2,4-difluorobenzenesulfonamide]: at PI3Kα (Table 1), testing at 0.001 µM gave an inhibition of 12%. The IC50 with MCF-7 cells (Table 1) stood at 0.7 ± 0.21 µM; in the experiment with HCT-116 cells [1] (Table 1, 72 h) it was 0.56 ± 0.1 µM.

Take `COc1ncc(-c2ccc3c(c2)sc2c(NCCCN4CCOCC4)ncnc23)cc1NS(=O)(=O)c1ccc(F)cc1F` [11j, N-(2-methoxy-5-(4-((3-morpholinopropyl)amino)benzo[4,5]thieno[3,2-d]pyrimidin-7-yl)pyridin-3-yl)-2,4-difluorobenzenesulfonamide]: testing at 0.001 µM against PI3Kα (Table 1) gave an inhibition of 10%. The IC50 in the experiment with MCF-7 cells (Table 1) was more than 1 µM; in the experiment with HCT-116 cells [1] (Table 1, 72 h) it was more than 1 µM.

`COc1ncc(-c2ccc3nccc(-c4ncc(C(=O)NCC5CC5)o4)c3c2)cc1NS(=O)(=O)c1ccc(F)cc1F` [22h, N-(cyclopropylmethyl)-2-(6-(5-((2,4-difluorophenyl)sulfonamido)-6-methoxypyridin-3-yl)quinolin-4-yl)oxazole-5-carboxamide]: testing at 0.001 µM against PI3Kα (Table 3) gave an inhibition of 78%. Moreover, the IC50 was determined as 0.37 nM on PI3Kα; 0.35 ± 0.11 µM with MCF-7 cells (Table 3); 0.06 ± 0.01 µM with HCT-116 cells [1] (Table 3, 72 h).

Take `COCCOc1ncnc2c1sc1cc(-c3cnc(OC)c(NS(=O)(=O)c4ccc(F)cc4F)c3)ccc12` [11l, N-(2-methoxy-5-(4-(2-methoxyethoxy)benzo[4,5]thieno[3,2-d]pyrimidin-7-yl)pyridin-3-yl)-2,4-difluorobenzenesulfonamide]: on PI3Kα (Table 1), the inhibition at 0.001 µM was 18%. The IC50 was 0.86 ± 0.12 µM in the experiment on MCF-7 cells (Table 1) and more than 1 µM with HCT-116 cells [1] (Table 1, 72 h).

Molecule `COc1ncc(-c2ccc3nccc(-c4ncc(C(=O)NC(C)C)o4)c3c2)cc1NS(=O)(=O)c1ccc(F)cc1F` [22c, 2-(6-(5-((2,4-difluorophenyl)sulfonamido)-6-methoxypyridin-3-yl)quinolin-4-yl)-N-isopropyloxazole-5-carboxamide] registered an inhibition at 0.001 µM against PI3Kα (Table 3) of 82%. Besides, the IC50 at PI3Kα was determined as 0.22 nM; at mTOR, 23 nM; in the experiment on MCF-7 cells (Table 3), 0.13 ± 0.03 µM; in the experiment on HCT-116 cells [1] (Table 3, 72 h), 0.02 ± 0.01 µM. In addition, the “Q1 of Annexin V-FITC/PI plot” value is 1.95 in the experiment with HCT-116 cells [2] (0.25 μM), 3.13 in the experiment with HCT-116 cells [2] (1 μM) and 2.69 in the experiment with HCT-116 cells [2] (4 μM). The “Q2 of Annexin V-FITC/PI plot” value is listed as 14.1 in the experiment with HCT-116 cells [2] (0.25 μM), 38.0 in the experiment on HCT-116 cells [2] (1 μM) and 58.3 with HCT-116 cells [2] (4 μM). The “Q3 of Annexin V-FITC/PI plot” value with HCT-116 cells [2] (0.25 μM) was determined as 0.080; with HCT-116 cells [2] (1 μM), 0.14; in the experiment on HCT-116 cells [2] (4 μM) it was 0.17. The “Q4 of Annexin V-FITC/PI plot” value with HCT-116 cells [2] (0.25 μM) is recorded as 83.9; with HCT-116 cells [2] (1 μM), 58.7; in the experiment on HCT-116 cells [2] (4 μM) it was 38.9. Also, the “apoptosis (flow cytometry), in words” value in the experiment with HCT-116 cells [2] (dose-dependent) is given as “induce apoptosis”. Besides, the cell cycle arrest entry with HCT-116 cells [3] is reported as “inhibited the cell cycle in G0/G1 phase”. Moreover, in [4], the “phosphorylation of AKT (Western blot)” value was “could block the phosphorylation process of AKT at low concentrations”. For the same molecule, the “apoptosis and necrosis (Hoechst33342/PI staining)” value with HCT-116 cells [5] is “could significantly affect apoptosis and necrosis of HCT-116 cells”.
